From US11407717B2, “Benzimidazole derivatives and use thereof as IDH1 inhibitors” (KPC PHARMACEUTICALS, INC., priority 2018, dated 2022) come the findings set out here.

What is called IC50 is the concentration that inhibits the measured activity by half. One may read the clearance as the volume of plasma or blood freed of the substance per unit of time. By Vd is commonly meant the apparent volume that relates the amount in the body to the concentration in plasma or blood. A word on the bioavailability: it is the share of a dose that reaches the circulation, judged against a reference dose that is usually intravenous.

The structures appear in SMILES notation. Like-named read-outs stand apart in the source and are kept apart here. A value given as a limit tells only on which side of the number the result lay.

For series [1], the system named is U87MG-IDH1-R132H cell strain. Put plainly: IDH1 cytological activity test, 2HG content in cell culture supernatant by LC-MS. The format is cell-based. The following applies: Homo sapiens, U-87 MG, 72 h; 2-HG in supernatant, 3 days incubation. How it is done:
In this study, the compound was incubated with the IDH1 mutant cell line, and the 2HG content in the cell culture supernatant was detected by LC-MS to determine the inhibitory activity of the compound on the IDH1 mutant. IDH1 catalyzes the […] of isocitrate to α-ketoglutarate (α-KG) in organisms, and the IDH1 mutant further catalyzes the reduction of α-KG to 2-hydroxyglutarate (2HG). The U87MG-IDH1-R132H cell strain is a stable transfected cell strain that can stably express IDH1-R132H mutant, obtained via screening by transfecting U87MG cells with IDH1-R132H, and the HT1080 cell strain contains an endogenous IDH1-R132C mutant. 1) The compound was diluted 3-fold with DMSO and then added to the cell culture plate, at a total of 10 concentrations, double duplicate holes for each concentration. The negative control well contains only DMSO, and the positive control well contained BAY1436032 at a final concentration of 5 μM. The final concentration of DMSO in all wells was 0.5%. 2) The IDH1 mutant cell line was seeded into a cell culture plate containing the compound at a density of 40,000 cells/well. The cells were incubated with the compound in a incubator at 37° C., 5% CO2 for 3 days. […]

The target in series [2] is IDH1(R132H) (Homo sapiens, UniProt O75874, R132H). In words: IDH1 in vitro enzyme activity test (IDH1 R132H). The following applies: 1500 μM α-KG + 15 μM NADPH. The format is biochemical. How it is done:
(§1) The IDH1 mutant catalyzes the NADPH-dependent reduction of α-KG (α-ketoglutarate) to 2-HG (2-hydroxyglutarate), and the consumed NADPH can be read by fluorescence.
(§2) Basic reaction buffer: 50 mM KH2PO4, pH 7.5, 10 mM MgCl2, 10% glycerol, 150 mM NaCl, 0.05% BSA (bovine serum albumin), 2 mM b-ME (2-mercaptoethanol), 0.003% Brij35 (polyethylene glycol lauryl ether)
(§3) Substrates and cofactors: • IDH1 wt (wild type): 65 μM isocitrate+50 μM NADP • IDH1(R132H): 1500 μM α-KG+15 μM NADPH • IDH1(R132C): 500 μM α-KG+15 μM NADPH
(§4) 1.33× enzyme (no enzyme in the control well), buffer, and NADP or NADPH (control well) were added into the wells of the reaction plate. The test compound was dissolved in 100% DMSO and then added to the enzyme mixture (Echo550, nanoliter level), and incubated for 60 minutes after simple centrifugation. A mixture of 4× substrate and cofactor were added to start the reaction. After simple centrifugation, the plate was incubated under shaking at room temperature for 45 minutes. A mixture of 3× lipoamide dehydrogenase and Resazurin was prepared, added to the reaction solution to test the amount of NADPH generated or remaining, and incubated at room temperature for 10 minutes after simple centrifugation. Multifunctional microplate reader Envision was used to measure (Ex/Em=535/590 nm).

The target of series [3] is IDH1(R132C) (Homo sapiens, UniProt O75874, R132C). Put plainly: IDH1 in vitro enzyme activity test (IDH1 R132C). The format is biochemical. The following applies: 500 μM α-KG + 15 μM NADPH. As to the method:
as §1, §2, §3, §4

Series [4] has as its target IDH1 wt (wild type) (Homo sapiens, UniProt O75874). In words: IDH1 in vitro enzyme activity test (IDH1 wild type). The format is biochemical. The note with it: 65 μM isocitrate + 50 μM NADP. As to the method: as §1, §2, §3, §4
Series [5] in a line: Evaluation of pharmacokinetics in mice. The following applies: for AUC(0-t): read-out: Area under curve AUC0-last. The format is in vivo, CD-1 mice. How it is done: 1) Experimental drug: Example 6;
2) Experimental animals: 8 male CD-1 mice aged 7-10 weeks, divided into 2 groups, 4 in each group;
3) Drug preparation: for the tail vein injection group, an appropriate amount of the drug was weighted, and dissolved in a mixed solvent of DMSO: 20% hydroxypropyl betacyclodextrin (HPbCD)=10:90 to prepare a 0.5 mg/mL solution; for the intragastric administration group, an appropriate amount of the drug was weighted, and dissolved in DMSO: polyoxyethylene castor oil EL (Cremophor EL):5% sulfobutyl cyclodextrin (Captisol)=5:10:85 to prepare a suspension.
Animals in group 1 were given a single injection of the drug at a dose of 1 mg/kg and a concentration of 0.5 mg/mL via tail vein, and animals in group 2 were given a compound at a dose of 20 mg/kg and a concentration of 2 mg/mL via gavage. Plasma samples were cross-collected from the animals at 0.0833 (tail vein injection group only), 0.25, 0.5, 1, 2, 4, 6, 8 and 24 hours after administration. The LC-MS/MS method was used to determine the drug concentration in the plasma sample, and the kinetic parameters of the tested drug are shown in Table 4: […]

Chain of IDH1(R132H) (O75874 whole entry R132H): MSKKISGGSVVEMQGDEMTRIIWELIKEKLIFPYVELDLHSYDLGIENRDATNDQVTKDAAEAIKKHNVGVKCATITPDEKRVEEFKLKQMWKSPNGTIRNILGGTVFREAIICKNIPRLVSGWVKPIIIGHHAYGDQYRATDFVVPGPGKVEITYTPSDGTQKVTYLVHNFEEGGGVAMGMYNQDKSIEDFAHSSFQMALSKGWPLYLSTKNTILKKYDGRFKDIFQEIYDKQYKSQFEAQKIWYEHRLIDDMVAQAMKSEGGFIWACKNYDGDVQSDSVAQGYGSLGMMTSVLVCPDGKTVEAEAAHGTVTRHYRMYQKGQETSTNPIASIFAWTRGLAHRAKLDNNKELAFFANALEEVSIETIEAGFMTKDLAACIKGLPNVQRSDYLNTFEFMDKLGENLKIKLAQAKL
Chain of IDH1 wt (wild type) (O75874 whole entry): as the sequence (O75874 whole entry R132H) above, with H132R counted along it
Chain of IDH1(R132C) (O75874 whole entry R132C): as the sequence (O75874 whole entry R132H) above, with H132C counted along it

Consider `C[C@H](c1ccccc1)n1c(Nc2ccc(OC(F)(F)F)cc2)nc2cc(CCC(=O)O)ccc21` [Example 1], for which the 50% inhibitory concentration (IC50) was 92.8 nM in series [1], 7.9 nM in series [2], 102 nM in series [3] and more than 10 µM in series [4].
As to `C[C@@H](c1ccccc1)n1c(Nc2ccc(OC(F)(F)F)cc2)nc2cc(CCC(=O)O)ccc21` [Example 2], in series [2], the IC50 turned out to be 464 nM.
Turning to `C[C@H](c1ccc(Cl)cc1)n1c(Nc2ccc(OC(F)(F)F)cc2)nc2cc(CCC(=O)O)ccc21` [Example 3], in series [2], the concentration for half-maximal inhibition (IC50) worked out at 320 nM.
Regarding `C[C@H](c1ccc(F)cc1)n1c(Nc2ccc(OC(F)(F)F)cc2)nc2cc(CCC(=O)O)ccc21` [Example 4], the IC50 in series [2] was 126 nM.
Same read-out and setting: for `CC[C@H](c1ccccc1)n1c(Nc2ccc(OC(F)(F)F)cc2)nc2cc(CCC(=O)O)ccc21` [Example 5] the value was 89.5 nM.
`O=C(O)CCc1ccc2c(c1)nc(Nc1ccc(OC(F)(F)F)cc1)n2[C@@H]1CCCc2ccccc21` [Example 6]: the concentration for half-maximal inhibition (IC50) in series [1] is 38.2 nM; in series [2], 3.94 nM; in series [3] it was 12.8 nM; in series [4], more than 10 µM. Moreover, the “pharmacokinetic properties in mice (in words)” value in series [5] (mice) is recorded as “good pharmacokinetic properties”. In addition, the AUC(0-t) came to 15.5 µM·h in series [5] (mouse, iv, male CD-1 mice, tail vein injection, 1 mg/kg, plasma) and 307 µM·h in series [5] (mouse, po, male CD-1 mice, intragastric administration, 20 mg/kg, plasma). In addition, the C0 in series [5] (mouse, iv, male CD-1 mice, tail vein injection, 1 mg/kg, plasma, read-out: Initial concentration C0) turned out to be 3.54 µM. Besides, the clearance in series [5] (mouse, plasma, iv, male CD-1 mice, tail vein injection, 1 mg/kg, read-out: Clearance Cl) turned out to be 2.17 mL/min/kg. Further, the half-life in series [5] (mouse, plasma, iv, male CD-1 mice, tail vein injection, 1 mg/kg, read-out: Half-life T1/2 (converted)) was 174 min. Further, the Vd in series [5] (mouse, plasma, iv, male CD-1 mice, tail vein injection, 1 mg/kg, read-out: Volume of distribution Vd) stood at 0.69 L/kg. Besides, in series [5] (mouse, plasma, po, male CD-1 mice, intragastric 20 mg/kg vs tail vein 1 mg/kg, read-out: Bioavailability F), the bioavailability is 99.1%. Moreover, the Tmax in series [5] (mouse, plasma, po, male CD-1 mice, intragastric administration, 20 mg/kg, read-out: Time of highest concentration T1/2 (converted)) was 60 min. In addition, the Cmax in series [5] (mouse, po, male CD-1 mice, intragastric administration, 20 mg/kg, plasma, read-out: Highest concentration Cmax) turned out to be 33.4 µM.
Turning to `C[C@H](c1cccc(Cl)c1)n1c(Nc2ccc(OC(F)(F)F)cc2)nc2cc(CCC(=O)O)ccc21` [Example 7], the half-inhibitory concentration (IC50) in series [2] was determined as 121 nM.
As to `O=C(O)CCc1ccc2c(c1)nc(Nc1ccc(OC(F)(F)F)cc1)n2[C@@H]1CCc2ccccc21` [Example 8], the IC50 in series [2] came out at 2.88 nM.
On the same count and under the same terms, the result for `O=C(O)CCc1ccc2c(c1)nc(Nc1ccc(OC(F)(F)F)cc1)n2C(c1ccccc1)c1ccccc1` [Example 9] reads 21.9 nM; that for `COc1ccccc1[C@@H](C)n1c(Nc2ccc(OC(F)(F)F)cc2)nc2cc(CCC(=O)O)ccc21` [Example 10], 344 nM.
As to `CC(C)(C)[C@H](c1ccccc1)n1c(Nc2ccc(OC(F)(F)F)cc2)nc2cc(CCC(=O)O)ccc21` [Example 11], in series [2], the IC50 amounted to 24.5 nM.
Still for that read-out and setting: the result for `O=C(O)CCc1ccc2c(c1)nc(Nc1ccc(OC(F)(F)F)cc1)n2[C@@H](c1ccccc1)C1CC1` [Example 12] reads 15.7 nM.
